Test results as given in patent US20240043474A1, “ANTI-INFLAMMATORY PEPTIDE FOR PREVENTING OR TREATING ATOPIC DERMATITIS” (AJOU UNIVERSITY INDUSTRY-ACADEMIC COOPERATION FOUNDATION, priority 2020, published 2024).
Entries after “also recorded” stand apart in the source; their conditions may differ. Square brackets hold non-standard residues; d marks the D form. Primed or numbered codes have the meaning given here. Ends that are not written are not given here. Peptide text beside a SMILES is read from it. * marks the point of attachment. PEG2′ = N-terminal cap of 2 polyethylene glycol units (PEG2); PEG4′ = N-terminal cap of 4 polyethylene glycol units (PEG4); 5FAM = O=C1OC2(c3ccc(O)cc3Oc3cc(O)ccc32)c2ccc(C(=O)*)cc21; Butanoyl(4-maleimido) = O=C1C=CC(=O)N1CCCC(=O)*; Stearoyl = CCCCCCCCCCCCCCCCCC(=O)*; Palmitoyl = CCCCCCCCCCCCCCCC(=O)*; Myristoyl = CCCCCCCCCCCCCC(=O)*; Hexanoyl = CCCCCC(=O)*

Legend:
[1] = system: IL-4, IL-31, IL-17; assay: Cytokine expression in spleen by real-time PCR after treating atopic skin lesions with external preparation; format: in vivo, mouse; conditions: external preparation on skin lesions, FIG. 9
[2] = system: CD4 T cells secreting atopy associated cytokines; assay: Ex vivo FACS of PBMCs from atopic mice cultured with peptides; format: cell-based, mouse; conditions: 3 μg/ml, 24 hours, compared to untreated control group (ADC), FIG. 10
Method: After removing hair from 6-week-old Balb/c male mice, application was performed with 1% DNCB 1 time/day for 2 days and 0.5% DNCB 1 time/day for 3 days for a total of 5 days to induce atopic symptoms. PBMCs were isolated from atopic mice, seeded in 24 well plates, treated with peptides, cultured for 24 hours, and then analyzed by FACS. PBMCs isolated from normal mice and atopy-induced mice were used as control groups, and peptides were treated to PBMC cultures isolated from atopic mice. Dupixent was used for the peptide control group (Dupixent 5 μg/ml). A900, A900P, A900H, A900S, A900M, A900MAL, A900PEG2, and A900PEG4 were used as the peptides, and the concentration was set to 3 μg/ml. Surface was stained with anti-CD4 antibodies, cytokines were subjected to intracellular staining, and the frequency of double stained population was measured.

[3] = system: CD11b+Ly6G+, CD83+ and Foxp3+ positive cells; assay: FACS of peripheral blood leukocytes (PBLs) from atopic dermatitis mice after peptide administration; format: in vivo, mouse; conditions: FIG. 3
[4] = system: IL-4, IL-13, IL-21; assay: Real-time PCR of cytokines in splenocytes and lymph node cells from atopic mice cultured with peptides; format: cell-based, mouse; conditions: 24 hours, compared to untreated control (ADC), FIGS. 11 and 12
[5] = system: IL-4R alpha, CCR3 and CTLA-4 positive cells; assay: FACS of splenocytes from atopic dermatitis mice after external preparation for five days; format: in vivo, mouse; conditions: FIG. 2
Method: In order to identify whether the peptide that has the effect of alleviating atopic dermatitis inflammation has an immunoregulatory function, splenocytes and peripheral blood leukocytes (PBLs) were separately isolated after administrating the external preparation into the mouse skin for five days, surface staining was performed with antibodies for FACS, and then the frequency of cells expressing interleukin 4 receptor (IL-4R) alpha, C—C chemokine receptor type 3 (CCR3), and cytotoxic T-lymphocyte-associated protein 4 (CTLA-4) was analyzed via flow cytometry. Dupixent was administered in a form of a peritoneal injection and tested as a control group.

[6] = system: atopic dermatitis induced with dinitrochlorobenzene (DNCB); assay: DNCB-induced atopic dermatitis mouse model, peptide applied as external preparation; format: in vivo; conditions: FIG. 1
Method: Experimental mice were bred in a 12-hour light/dark cycle, free of pathogens at a constant temperature of 23° C. and 55% humidity. After an adaptation period of several days, DNCB-induced atopic dermatitis was induced in mice by the following method.
First, the hair in the dorsal skin area was carefully shaved using a hair removal cream, and then 100 μL of 1% dinitrochlorobenzene (DNCB) dissolved in acetone was locally treated to exposed skin once a day for 3 days to sensitize the skin and induce atopic dermatitis.
A positive control group obtained by treating mice having atopic dermatitis with anti-inflammatory moisturizing cream (Control Cream) and Dupixent injection which is a therapeutic agent for atopic dermatitis was compared with a peptide (A900 peptide) treated group.

[7] = system: IL-13, IL-4, TNF alpha, IL-17; assay: Cytokines in mice having atopic dermatitis after peptide A900 treatment (summary statement); format: in vivo, mouse
[8] = system: cells secreting atopy associated cytokines; assay: In vivo FACS of intracellular cytokines in PBLs after external preparation for 5 days in atopic mice; parameters: species or system mouse; conditions: external preparation 1 μg/ml for 5 days, compared to ADC mice given PBS, FIG. 13
Method: (§1) After removing hair from 6-week-old Balb/c male mice, application was performed with 1% DNCB 1 time/day for 2 days and 0.5% DNCB 1 time/day for 3 days for a total of 5 days, to induce atopic symptoms (N=5-8 mice for each group). After administering the external preparation to mouse skin for 5 days in mice having atopic symptoms, peripheral blood leukocytes (PBLs) were isolated and the frequency of each cytokine expressing cell was analyzed and compared after intracellular staining with antibodies for FACS. The control group was given with an anti-inflammatory moisturizing cream external preparation (5 times) and administered with an anti-mouse IL-4 receptor antibody (100 ug/mouse) intraperitoneal injection (1 time). A900, A900M, A900MAL, and A900PEG4 were used for peptides, and the concentration was set to 1 μg/ml. Cytokines were subjected to intracellular staining to measure the frequency of stained cell population.

[9] = system: IL-4; assay: IL-4 expression in splenocytes of treated atopic dermatitis mice by real-time PCR; format: in vivo, mouse; conditions: FIG. 4
[10] = system: CD4 cells secreting IL-13 and IL-31; assay: In vivo FACS of cytokine-expressing CD4 cells in PBLs after external preparation in atopic mice; parameters: species or system mouse; conditions: external preparation 1 μg/ml for 5 days, FIG. 14
Method: as §1
Peripheral blood leukocytes (PBLs) isolated from the same mice as in FIG. 13 were isolated and subjected to CD4 surface staining and intracellular staining with antibodies for FACS to analyze and compare the frequency of each cytokine-expressing CD4 cell.

[11] = Skin tissue penetrability, confocal microscopy of skin after topical fluorescent peptide; format: in vivo, mouse; conditions: 1 μg applied to skin of ICR mice, with or without needle scratch, skin collected 2 hours later; FIG. 5
Description: To determine the skin tissue penetration of the A900 peptide, peptide A900 peptide (A900-FAM) with fluorescent substance FAM (Carboxyfluorescein) attached to the N-terminus of A900 peptide was applied to the skin of ICR 4-week-old mice.

[12] = system: peritoneal macrophages; assay: Intracellular expression and frequency of peptide in cultured peritoneal macrophages, confocal microscopy and FACS; format: cell-based, mouse; conditions: 1 μg/mL, FIG. 8
Method: Peritoneal macrophages were isolated from the same mouse used in FIG. 7 to culture the cell suspension. Anti-CD3 (1 μg/ml) antibodies were plated on a petri dish at room temperature for 3 hours and cells were inoculated (5×10^5 cells/well). After 1 hour, anti-CD28 antibodies (1 μg/ml), IL-23 (20 ng/ml), IL-6 (20 ng/ml), and TGF-β (5 ng/ml) were added.

[13] = system: peritoneal macrophages; assay: Fluorescence-expressing peritoneal macrophages after intraperitoneal fluorescently labeled peptide, FACS; format: in vivo, mouse
[14] = system: lymph node cells; assay: Intracellular expression and frequency of peptide in cultured lymph node cells, confocal microscopy and FACS; format: cell-based, mouse; conditions: 1 μg/mL, FIG. 7
[15] = PBLs of mice having atopic dermatitis
[16] = external preparation for five days

Molecule | expression of IL-4 [1] | expression of IL-17 [1] | expression of IL-31 [1] | frequency of CD4 T cells secreting atopy associated cytokines [2] | IL-4 expression [4] | IL-13 expression [4] | IL-21 expression [4] | further results
GCVTELRCGEIV [A902] | inhibited | inhibited | inhibited | – | – | – | – | –
GCVTVLRCGEIV [A900] | inhibited | inhibited | inhibited | inhibited | inhibited | inhibited | inhibited | frequency of CD11b+Ly6G+ positive cells [3, 15]: inhibited; frequency of CD83+ positive cells [3, 15]: inhibited; frequency of Foxp3+ positive cells [3, 15]: increased; degree of inhibition of CD11b+Ly6G+ and CD83+ positive cells compared with control administered group ([3]; PBLs): more effective than in the control administered group; degree of inhibition of IL-4R alpha, CCR3 and CTLA-4 positive cells compared with control administered group ([5]; control Dupixent peritoneal injection): more effective than that of the control administered group; frequency of CCR3 positive cells [5, 16]: tended to be inhibitive; also recorded: decreased; frequency of CTLA-4 positive cells [5, 16]: tended to be inhibitive; also recorded: decreased; frequency of IL-4R alpha positive cells [5, 16]: tended to be inhibitive; also recorded: decreased; atopic dermatitis symptoms ([6]; external preparation applied to mice with DNCB-induced atopic dermatitis): alleviated; speed of appearance of the effect compared with control group ([6]; versus Control Cream / Dupixent injection positive control): faster than the control group; cytokines such as IL-13, IL-4, TNF alpha, and IL-17 [7]: reduced; frequency of cells secreting atopy associated cytokines [8]: inhibited; IL-4 expression [9]: inhibited
GCETVLRCGEIV [A901] | inhibited | inhibited | inhibited | – | – | – | – | –
Palmitoyl-GCVTVLRCGEIV (cysteine pairing not given here) [A900P] | – | – | – | inhibited | inhibited | inhibited | inhibited | –
GCETELRCGEIV [A903] | inhibited | inhibited | inhibited | – | – | – | – | –
Stearoyl-GCVTVLRCGEIV (cysteine pairing not given here) [A900S] | – | – | – | inhibited | – | – | – | –
PEG4-GCVTVLRCGEIV ([PEG4′]GCVTVLRCGEIV; cysteine pairing not given here) [A900PEG4] | – | – | – | inhibited | inhibited | inhibited | inhibited | frequency of cells secreting atopy associated cytokines [8]: inhibited
Maleimidobutyrol-GCVTVLRCGEIV ({Butanoyl(4-maleimido)}-GCVTVLRCGEIV; cysteine pairing not given here) [A900MAL] | – | – | – | inhibited | inhibited | inhibited | inhibited | frequency of CD4 cells secreting IL-13 [10]: inhibited; frequency of CD4 cells secreting IL-31 [10]: inhibited; frequency of cells secreting atopy associated cytokines [8]: inhibited
Hexanoyl-GCVTVLRCGEIV (cysteine pairing not given here) [A900H] | – | – | – | – | inhibited | inhibited | inhibited | –
GCLRCGEIV [A914] | inhibited | inhibited | inhibited | – | – | – | – | –
PEG2-GCVTVLRCGEIV ([PEG2′]GCVTVLRCGEIV; cysteine pairing not given here) [A900PEG2] | – | – | – | – | inhibited | inhibited | inhibited | –
GCESEILCGEIV [A907] | inhibited | inhibited | inhibited | – | – | – | – | –
GCVTVCGEIV [A911] | inhibited | inhibited | inhibited | – | – | – | – | –
CC[C@H](C)[C@H](NC(=O)[C@H](CCC(=O)O)NC(=O)CNC(=O)[C@H](CS)NC(=O)[C@H](CCCNC(=N)N)NC(=O)[C@H](CC(C)C)NC(=O)[C@@H](NC(=O)[C@@H](NC(=O)[C@@H](NC(=O)[C@H](CS)NC(=O)CNC(=O)c1ccc2c(c1)C(=O)OC21c2ccc(O)cc2Oc2cc(O)ccc21)C(C)C)[C@@H](C)O)C(C)C)C(=O)N[C@H](C(=O)O)C(C)C [A900-FAM] (5FAM-GCVTVLRCGEIV-OH) | – | – | – | – | – | – | – | skin tissue penetration (fluorescence in skin tissue) [11]: fluorescence was detected in both the epidermis and dermis; cell frequency expressing peptide ([12]; 1-hour culture group): 10%; cell frequency expressing peptide ([12]; 24-hour culture group): 15%; fluorescence-expressing cells ([13]; 3 μg into abdominal cavity, after 3 hours, FIG. 6): barely detected; peritoneal macrophages expressing fluorescence ([13]; 3 μg into abdominal cavity, at 30 minutes, FIG. 6): 50%; peritoneal macrophages expressing fluorescence ([13]; 3 μg into abdominal cavity, at 1 hour, FIG. 6): 23%; time the peptide is maintained in the cell ([13]; 3 μg intraperitoneally, cells in the abdominal cavity): more than 1 hour; cell frequency expressing peptide ([14]; 1-hour treated group): 20%; cell frequency expressing peptide ([14]; 24-hour treated group): 40%
Myristoyl-GCVTVLRCGEIV (cysteine pairing not given here) [A900M] | – | – | – | inhibited | inhibited | inhibited | inhibited | frequency of cells secreting atopy associated cytokines [8]: inhibited
